Source: patent US20140275094A1, “METHOD FOR TREATING PULMONARY ARTERIAL HYPERTENSION IN A PATIENT NOT HAVING IDIOPATHIC PULMONARY FIBROSIS” (GILEAD SCIENCES, INC., priority 2012, published 2014)

Columns and labels:
[1] = target: T1, human bile salt export pump (BSEP) (Homo sapiens, UniProt O95342); assay: Inhibition of hepatic transporter BSEP, Sf9 cell membrane vesicles; assay type: biochemical
T1 construct: expressed in transfected cells; host or cells: Sf9 cell membrane vesicles
Experimental: (§1) Inhibition constants (IC50) were measured for human bile salt export pump (BSEP), sodium taurocholate cotransporting polypeptide (NTCP), multidrug resistance protein 2 (MRP2), P-glycoprotein (Pgp), breast cancer resistance protein (BCRP), organic anion-transporting polypeptide 1B1 (OATP1B1), and OATP1B3 in transfected cell-lines. Known inhibitors were used as positive controls.

[2] = target: T2, sodium taurocholate cotransporting polypeptide (NTCP) (Homo sapiens, UniProt Q14973); assay: Inhibition of hepatic transporter NTCP, transfected CHO cells; assay type: cell-based
T2 construct: expressed in transfected cells; host or cells: Chinese Hamster Ovary (CHO)
T2 sequence (Q14973 1-349): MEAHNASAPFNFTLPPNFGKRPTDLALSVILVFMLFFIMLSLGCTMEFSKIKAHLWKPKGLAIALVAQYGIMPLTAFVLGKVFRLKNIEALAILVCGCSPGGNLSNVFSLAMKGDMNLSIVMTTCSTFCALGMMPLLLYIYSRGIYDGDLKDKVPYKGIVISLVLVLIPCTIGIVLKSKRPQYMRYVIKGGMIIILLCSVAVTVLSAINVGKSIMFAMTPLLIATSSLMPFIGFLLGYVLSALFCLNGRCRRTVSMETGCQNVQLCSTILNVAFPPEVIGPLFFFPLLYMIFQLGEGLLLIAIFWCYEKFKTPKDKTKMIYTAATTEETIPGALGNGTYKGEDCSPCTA
Experimental: as §1

P-glycoprotein (Pgp) = target: T3, P-glycoprotein (Pgp) (Homo sapiens, UniProt P08183); assay: Inhibition of Pgp, transfected MDCKII cells; assay type: cell-based
T3 construct: expressed in transfected cells; host or cells: Madin-Darby canine kidney strain II (MDCKII)
T3 sequence (P08183 whole entry): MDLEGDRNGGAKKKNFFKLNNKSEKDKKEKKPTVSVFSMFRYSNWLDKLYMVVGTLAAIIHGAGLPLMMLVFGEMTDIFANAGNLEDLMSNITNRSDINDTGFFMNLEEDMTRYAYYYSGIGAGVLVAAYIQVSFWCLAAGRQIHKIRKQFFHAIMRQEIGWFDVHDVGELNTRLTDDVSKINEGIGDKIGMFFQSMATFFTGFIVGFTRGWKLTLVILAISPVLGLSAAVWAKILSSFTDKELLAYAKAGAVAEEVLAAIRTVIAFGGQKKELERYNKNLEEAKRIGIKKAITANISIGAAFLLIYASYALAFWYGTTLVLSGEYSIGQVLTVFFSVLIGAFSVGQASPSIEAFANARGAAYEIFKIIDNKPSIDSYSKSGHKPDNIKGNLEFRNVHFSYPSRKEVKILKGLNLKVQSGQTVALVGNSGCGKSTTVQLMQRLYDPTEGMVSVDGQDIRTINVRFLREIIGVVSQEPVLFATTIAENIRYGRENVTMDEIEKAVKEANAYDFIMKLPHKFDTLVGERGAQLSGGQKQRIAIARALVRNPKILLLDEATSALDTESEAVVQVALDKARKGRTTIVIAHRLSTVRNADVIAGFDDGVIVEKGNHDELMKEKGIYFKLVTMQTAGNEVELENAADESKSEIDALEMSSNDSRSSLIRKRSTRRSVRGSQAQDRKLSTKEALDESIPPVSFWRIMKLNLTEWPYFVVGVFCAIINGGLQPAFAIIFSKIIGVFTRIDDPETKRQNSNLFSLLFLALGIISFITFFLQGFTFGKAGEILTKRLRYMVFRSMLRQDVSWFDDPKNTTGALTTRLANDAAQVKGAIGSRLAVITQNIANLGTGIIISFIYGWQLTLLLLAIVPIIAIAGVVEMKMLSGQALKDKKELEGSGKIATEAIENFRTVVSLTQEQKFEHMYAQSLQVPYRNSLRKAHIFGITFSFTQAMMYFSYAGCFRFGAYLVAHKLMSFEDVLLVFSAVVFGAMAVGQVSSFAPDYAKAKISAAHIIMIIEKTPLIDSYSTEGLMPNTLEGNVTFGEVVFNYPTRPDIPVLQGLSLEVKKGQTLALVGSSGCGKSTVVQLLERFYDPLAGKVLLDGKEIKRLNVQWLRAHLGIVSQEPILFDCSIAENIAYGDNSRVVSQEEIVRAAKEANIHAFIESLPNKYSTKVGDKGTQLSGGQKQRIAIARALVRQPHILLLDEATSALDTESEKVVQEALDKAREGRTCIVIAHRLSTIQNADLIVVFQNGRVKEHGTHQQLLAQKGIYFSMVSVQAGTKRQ
Experimental: as §1

[3] = target: T4, breast cancer resistance protein (BCRP) (Homo sapiens, UniProt Q9UNQ0); assay: Inhibition of BCRP, transfected MDCKII cells; assay type: cell-based
T4 construct: expressed in transfected cells; host or cells: MDCKII
T4 sequence (Q9UNQ0 1-655): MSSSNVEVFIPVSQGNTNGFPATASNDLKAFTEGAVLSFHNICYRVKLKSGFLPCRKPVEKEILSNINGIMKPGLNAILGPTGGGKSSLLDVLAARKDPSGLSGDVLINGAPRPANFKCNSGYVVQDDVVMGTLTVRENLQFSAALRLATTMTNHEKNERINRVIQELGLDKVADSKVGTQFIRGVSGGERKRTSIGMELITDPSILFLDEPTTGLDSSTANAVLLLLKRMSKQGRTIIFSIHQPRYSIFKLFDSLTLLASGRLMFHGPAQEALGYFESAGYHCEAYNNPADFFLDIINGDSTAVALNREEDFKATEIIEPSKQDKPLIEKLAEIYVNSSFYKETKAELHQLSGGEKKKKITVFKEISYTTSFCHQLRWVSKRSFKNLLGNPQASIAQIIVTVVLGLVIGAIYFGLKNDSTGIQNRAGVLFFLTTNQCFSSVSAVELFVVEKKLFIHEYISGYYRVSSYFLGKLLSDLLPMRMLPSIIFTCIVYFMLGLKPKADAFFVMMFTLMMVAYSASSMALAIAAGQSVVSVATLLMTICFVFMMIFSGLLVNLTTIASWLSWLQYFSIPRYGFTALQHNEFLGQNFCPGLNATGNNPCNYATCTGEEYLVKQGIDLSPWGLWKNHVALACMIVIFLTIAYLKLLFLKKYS
Experimental: as §1

[4] = target: T5, organic anion-transporting polypeptide 1B1 (OATP1B1) (Homo sapiens, UniProt Q9Y6L6); assay: Inhibition of OATP1B1, transfected CHO cells; assay type: cell-based
T5 construct: expressed in transfected cells; host or cells: CHO
T5 sequence (Q9Y6L6 1-691): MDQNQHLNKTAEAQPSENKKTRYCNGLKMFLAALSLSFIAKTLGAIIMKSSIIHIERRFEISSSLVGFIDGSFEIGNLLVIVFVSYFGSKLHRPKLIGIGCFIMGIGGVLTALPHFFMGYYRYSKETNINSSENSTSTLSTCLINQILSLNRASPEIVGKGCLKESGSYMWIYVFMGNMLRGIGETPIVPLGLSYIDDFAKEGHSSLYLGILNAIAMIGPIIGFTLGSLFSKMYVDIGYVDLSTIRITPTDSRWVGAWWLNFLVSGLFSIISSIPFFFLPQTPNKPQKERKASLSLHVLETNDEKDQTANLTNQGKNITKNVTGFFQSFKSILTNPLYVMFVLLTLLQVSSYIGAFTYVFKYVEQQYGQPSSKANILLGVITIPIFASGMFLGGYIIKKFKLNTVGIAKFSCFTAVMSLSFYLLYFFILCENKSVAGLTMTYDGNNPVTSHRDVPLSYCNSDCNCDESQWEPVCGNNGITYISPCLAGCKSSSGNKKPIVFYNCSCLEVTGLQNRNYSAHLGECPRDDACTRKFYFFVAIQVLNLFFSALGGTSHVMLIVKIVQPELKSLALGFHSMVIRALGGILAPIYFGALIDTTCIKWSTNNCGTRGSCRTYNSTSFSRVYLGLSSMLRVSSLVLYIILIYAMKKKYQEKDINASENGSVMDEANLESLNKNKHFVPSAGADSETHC
Experimental: as §1

OATP1B3 = target: T6, OATP1B3 (Homo sapiens, UniProt Q9NPD5); assay: Inhibition of OATP1B3, transfected CHO cells; assay type: cell-based; settings: OAT1B3
T6 construct: expressed in transfected cells; host or cells: CHO
T6 sequence (Q9NPD5 1-702): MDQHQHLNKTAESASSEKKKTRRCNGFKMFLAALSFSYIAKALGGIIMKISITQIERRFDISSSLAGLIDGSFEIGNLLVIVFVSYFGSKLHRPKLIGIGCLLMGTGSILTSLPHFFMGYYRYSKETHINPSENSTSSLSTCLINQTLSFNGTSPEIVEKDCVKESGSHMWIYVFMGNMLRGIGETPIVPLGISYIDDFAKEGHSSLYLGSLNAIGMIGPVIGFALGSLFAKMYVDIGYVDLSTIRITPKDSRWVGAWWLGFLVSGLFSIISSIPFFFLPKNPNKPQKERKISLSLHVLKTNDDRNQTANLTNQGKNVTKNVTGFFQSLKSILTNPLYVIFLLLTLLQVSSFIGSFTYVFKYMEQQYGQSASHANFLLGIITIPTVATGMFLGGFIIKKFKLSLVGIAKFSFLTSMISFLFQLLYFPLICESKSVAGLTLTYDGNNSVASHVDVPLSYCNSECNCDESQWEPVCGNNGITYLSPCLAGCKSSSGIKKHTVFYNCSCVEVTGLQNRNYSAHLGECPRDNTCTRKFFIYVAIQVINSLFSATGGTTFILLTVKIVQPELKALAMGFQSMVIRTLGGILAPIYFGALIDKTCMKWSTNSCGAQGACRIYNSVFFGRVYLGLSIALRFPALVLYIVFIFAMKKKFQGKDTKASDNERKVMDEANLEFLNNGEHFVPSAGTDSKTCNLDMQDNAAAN
Experimental: as §1

human hepatocytes = settings: cited from earlier work

T1 sequence (O95342 whole entry): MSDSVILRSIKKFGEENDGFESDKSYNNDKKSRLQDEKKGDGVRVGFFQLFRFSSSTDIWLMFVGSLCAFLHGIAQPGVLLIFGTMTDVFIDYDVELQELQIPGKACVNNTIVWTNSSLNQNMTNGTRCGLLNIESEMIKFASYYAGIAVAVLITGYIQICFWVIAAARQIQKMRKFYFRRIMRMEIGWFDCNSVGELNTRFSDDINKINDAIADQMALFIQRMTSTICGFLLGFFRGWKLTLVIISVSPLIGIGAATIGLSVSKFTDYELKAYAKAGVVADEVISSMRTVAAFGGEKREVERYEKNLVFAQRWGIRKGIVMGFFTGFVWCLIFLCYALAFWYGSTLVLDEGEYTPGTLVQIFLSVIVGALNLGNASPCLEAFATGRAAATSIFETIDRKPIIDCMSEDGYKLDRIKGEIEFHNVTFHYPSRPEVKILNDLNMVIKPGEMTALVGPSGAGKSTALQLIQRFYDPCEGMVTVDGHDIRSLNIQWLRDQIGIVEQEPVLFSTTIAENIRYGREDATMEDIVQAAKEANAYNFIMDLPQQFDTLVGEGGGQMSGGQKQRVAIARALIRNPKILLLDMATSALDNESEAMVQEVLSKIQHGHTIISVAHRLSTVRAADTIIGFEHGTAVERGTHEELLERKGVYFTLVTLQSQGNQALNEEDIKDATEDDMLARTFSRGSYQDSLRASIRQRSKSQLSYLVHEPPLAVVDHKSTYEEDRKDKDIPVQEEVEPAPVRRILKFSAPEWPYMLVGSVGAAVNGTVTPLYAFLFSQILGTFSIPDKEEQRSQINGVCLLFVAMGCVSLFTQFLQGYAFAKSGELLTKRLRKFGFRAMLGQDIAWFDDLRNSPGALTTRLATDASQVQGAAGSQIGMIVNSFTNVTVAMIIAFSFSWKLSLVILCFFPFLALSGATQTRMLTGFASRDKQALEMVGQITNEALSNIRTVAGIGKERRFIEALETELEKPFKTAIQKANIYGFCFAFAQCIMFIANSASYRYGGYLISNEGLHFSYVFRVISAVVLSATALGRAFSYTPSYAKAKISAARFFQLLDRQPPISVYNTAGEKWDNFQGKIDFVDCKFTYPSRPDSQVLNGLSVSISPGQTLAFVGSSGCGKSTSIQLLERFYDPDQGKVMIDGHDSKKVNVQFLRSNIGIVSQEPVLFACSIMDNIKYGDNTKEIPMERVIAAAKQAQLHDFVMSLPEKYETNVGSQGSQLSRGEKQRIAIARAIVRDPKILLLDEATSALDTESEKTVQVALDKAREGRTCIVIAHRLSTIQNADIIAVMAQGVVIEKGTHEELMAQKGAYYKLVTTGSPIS

effect on NTCP [2]	IC50 ([2]; NTCP)	IC50 (P-glycoprotein (Pgp))	IC50 [3]	IC50 [4]	IC50 (OATP1B3)	Structure (SMILES)	effect on BSEP [1]	IC50 ([1]; BSEP)	effect on hepatobiliary transporter activity (human hepatocytes)
inhibition was observed	8 µM	64 ± 15 µM	75 ± 37 µM	2 ± 0.3 µM	2.1 ± 0.3 µM	CCCNS(=O)(=O)Nc1ncnc(OCCOc2ncc(Br)cn2)c1-c1ccc(Br)cc1 [Macitentan, N-[5-(4-bromophenyl)-6-(2-(5-bromopyrimidin-2-yloxy)ethoxy)-pyrimidin-4-yl]-N′-propylaminosulfonamide]	inhibition was observed	12 µM	–
–	–	–	–	–	–	COc1cc(OC)nc(O[C@H](C(=O)O)C(OC)(c2ccccc2)c2ccccc2)n1 [darusentan]	–	–	less potent
–	–	–	–	–	–	Cc1cc2c(cc1CC(=O)c1sccc1S(=O)(=O)Nc1onc(C)c1Cl)OCO2 [sitaxsentan]	–	–	decreased transporter activity to the greatest extent
